Experimental data taken from paper PMC7763995 (Molecules, 2020).

Legend:
Porcine liver CES = experiment: In vitro CES inhibition, 4-NPA substrate; type: biochemical; conditions: compound concentration 20 µM; n.a. = not active
Protocol: (§1) Measurements were performed with a FLUOStar Optima microplate reader (BMG Labtech, Ortenberg, Germany). Compounds were dissolved in DMSO, the incubation mixture contained 2% solvent.

Human erythrocyte AChE [1] = molecular target: T1, Human erythrocyte AChE (Homo sapiens, UniProt P22303); experiment: biochemical; conditions: mean ± SEM, n = 3; n.a. = not active; read-out: Human Erythrocyte AChE, IC50
T1 construct: AChE from human erythrocytes was used; purchased Sigma-Aldrich; host or cells: human erythrocytes
Protocol: as §1

Equine serum BChE = molecular target: T2, Equine serum BChE (Equus caballus, UniProt P81908); experiment: biochemical
T2 construct: equine serum BChE; purchased Sigma-Aldrich; host or cells: equine serum
Protocol: as §1

EeAChE PAS = molecular target: T3, EeAChE PAS (Electrophorus electricus, UniProt O42275); type: binding; conditions: compound concentration 20 µM
T3 construct: Electric eel AChE (EeAChE, type VI-S, lyophilized powder); purchased Sigma-Aldrich type VI-S; host or cells: electric eel
Protocol: Electric eel AChE (EeAChE, type VI-S, lyophilized powder, Sigma-Aldrich, Saint Louis, MO, USA) was used owing to its high degree of purification, high activity, and lower cost compared to human AChE.
The blank contained propidium iodide of the same concentration in 1 mM Tris-HCl buffer pH 8.0. The measurements were carried out in triplicate on a FLUOStar Optima microplate reader, and the results were calculated by formula (1):% Displacement = 100 − (IFAChE+ Propidium + inhibitor / IFAChE + Propidium) × 100(1) where IFAChE + Propidium is the fluorescence intensity of the propidium associated with AChE in the absence of the test compound (taken as 100%), and IFAChE + Propidium + inhibitor is the fluorescence intensity of the propidium associated with AChE in the presence of the test compound.

Human erythrocyte AChE [2] = molecular target: T1, Human erythrocyte AChE; experiment: Kinetic study of AChE inhibition, steady-state inhibition constants; type: biochemical
Protocol: Mechanisms of human erythrocyte AChE and equine serum BChE inhibition were assessed via a thorough analysis of enzyme kinetics. Residual activity was measured following 5 min incubation at 25°C (for temperature equilibration) with three increasing concentrations of inhibitor and six decreasing substrate concentrations. Substrate was added immediately after the 5 min incubation with inhibitor and the rates of absorption were monitored at 412 nm using a FLUOStar OPTIMA microplate reader.

T1 sequence (P22303 32-617 isoform P22303-2 limits assumed): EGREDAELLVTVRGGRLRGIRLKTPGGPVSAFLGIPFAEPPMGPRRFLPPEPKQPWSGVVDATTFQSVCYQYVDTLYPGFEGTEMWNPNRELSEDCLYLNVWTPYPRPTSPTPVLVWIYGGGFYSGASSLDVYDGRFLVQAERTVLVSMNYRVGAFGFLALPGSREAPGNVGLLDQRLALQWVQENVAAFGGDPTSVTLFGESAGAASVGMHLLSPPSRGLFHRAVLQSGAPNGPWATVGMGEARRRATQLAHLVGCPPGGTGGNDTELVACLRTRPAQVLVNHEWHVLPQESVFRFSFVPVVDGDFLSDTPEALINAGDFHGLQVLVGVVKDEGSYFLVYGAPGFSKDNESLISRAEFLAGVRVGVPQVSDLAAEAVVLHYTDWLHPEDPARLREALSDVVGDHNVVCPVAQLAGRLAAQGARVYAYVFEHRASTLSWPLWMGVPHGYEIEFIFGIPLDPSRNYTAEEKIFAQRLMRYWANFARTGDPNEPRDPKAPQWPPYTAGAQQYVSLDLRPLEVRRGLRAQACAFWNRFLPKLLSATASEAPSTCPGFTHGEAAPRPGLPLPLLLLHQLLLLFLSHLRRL
T2 sequence (P81908 whole entry): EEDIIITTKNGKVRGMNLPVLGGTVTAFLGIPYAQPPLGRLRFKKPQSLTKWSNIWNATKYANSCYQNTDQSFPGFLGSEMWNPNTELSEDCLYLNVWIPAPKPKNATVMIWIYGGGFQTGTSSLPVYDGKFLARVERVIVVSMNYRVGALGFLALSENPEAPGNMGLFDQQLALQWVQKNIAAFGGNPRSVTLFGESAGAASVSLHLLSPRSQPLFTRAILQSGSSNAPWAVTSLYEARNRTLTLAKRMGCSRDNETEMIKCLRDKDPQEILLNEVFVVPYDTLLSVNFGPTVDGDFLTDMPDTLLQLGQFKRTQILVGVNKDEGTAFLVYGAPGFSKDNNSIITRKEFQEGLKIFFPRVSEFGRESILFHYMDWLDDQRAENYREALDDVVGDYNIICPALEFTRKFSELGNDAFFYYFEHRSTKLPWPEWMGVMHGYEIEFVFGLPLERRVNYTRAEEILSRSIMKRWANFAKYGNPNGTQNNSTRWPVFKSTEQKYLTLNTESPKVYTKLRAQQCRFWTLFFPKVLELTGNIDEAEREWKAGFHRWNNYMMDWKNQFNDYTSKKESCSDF
T3 sequence (O42275 24-633): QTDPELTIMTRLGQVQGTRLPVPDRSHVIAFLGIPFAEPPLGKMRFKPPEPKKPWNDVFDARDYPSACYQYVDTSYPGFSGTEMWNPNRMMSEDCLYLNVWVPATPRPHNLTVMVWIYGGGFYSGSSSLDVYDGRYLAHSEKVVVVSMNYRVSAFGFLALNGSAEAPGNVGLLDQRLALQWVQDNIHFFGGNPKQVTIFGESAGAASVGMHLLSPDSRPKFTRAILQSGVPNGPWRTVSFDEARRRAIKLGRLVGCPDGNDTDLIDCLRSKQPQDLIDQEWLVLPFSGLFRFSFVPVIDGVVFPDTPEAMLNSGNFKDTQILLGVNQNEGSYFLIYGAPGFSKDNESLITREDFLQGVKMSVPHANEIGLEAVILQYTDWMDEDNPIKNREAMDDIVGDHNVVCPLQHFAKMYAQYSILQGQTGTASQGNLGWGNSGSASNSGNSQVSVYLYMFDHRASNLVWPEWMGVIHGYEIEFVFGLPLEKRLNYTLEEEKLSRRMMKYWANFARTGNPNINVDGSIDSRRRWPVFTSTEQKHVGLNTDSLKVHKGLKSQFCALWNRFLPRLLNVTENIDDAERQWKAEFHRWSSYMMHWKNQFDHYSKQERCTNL

Which results are given for `CC(C)(C)c1cc(C=NCCNc2c3c(nc4ccccc24)CCCCC3)cc(C(C)(C)C)c1O` [Compound 7c, 2,6-Di-tert-butyl-4-{[2-(7,8,9,10-tetrahydro-6H-cyclohepta[b]quinolin-11-ylamino)-ethylimino]-methyl}-phenol]?
Porcine Liver CES, (%) inhibition (Porcine liver CES): 30.1 ± 2.5%; IC50 (Human erythrocyte AChE [1]): 4.03 ± 0.03 µM; Selectivity for BChE (Equine serum BChE; IC50 AChE / IC50 BChE): 9.6; IC50 (Equine serum BChE; mean ± SEM, n = 3, n.a. = not active, read-out: Equine Serum BChE, IC50): 0.419 ± 0.04 µM; Displacement of Propidium from EeAChE PAS (%) (EeAChE PAS): 16.3 ± 1.3%; αKi (noncompetitive component), AChE (Human erythrocyte AChE [2]; Lineweaver-Burk plots): 4.30 ± 0.02 µM; Ki (Human erythrocyte AChE [2]; Lineweaver-Burk plots, read-out: Ki (competitive component), AChE): 1.58 ± 0.1 µM; Mechanism of AChE inhibition (Human erythrocyte AChE [2]; changes in both Km and Vmax): mixed type of reversible inhibition
